Columns and labels:
[1] = tested on: Pseudomonas aeruginosa; assay: Synergistic antibacterial activity against wild type Pseudomonas aeruginosa PAO1 assessed as potentiation of chloramphenicol-induced antibacterial effect incubated for 18 hrs by checkerboard assay relative to chloramphenicol alone; type: functional
[2] = tested on: Pseudomonas aeruginosa; assay: Potentiation of novobiocin-induced antibacterial activity against carbapenem-resistant Pseudomonas aeruginosa 264-104354 clinical isolate assessed as novobiocin MIC at <= 7.1 uM incubated for 18 hrs by CLSI protocol based assay (reference value: 512 ug/ml); type: functional; details: 264-104354, 18 h
[3] = tested on: Pseudomonas aeruginosa; assay: Antibacterial activity against wild type Pseudomonas aeruginosa PAO1 incubated for 18 hrs by CLSI protocol based assay; type: functional; details: PAO1, 18 h
[4] = tested on: Klebsiella pneumoniae; assay: Potentiation of novobiocin-induced antibacterial activity against colistin-resistant Klebsiella pneumoniae 113250 clinical isolate assessed as novobiocin MIC at <= 7.1 uM incubated for 18 hrs by CLSI protocol based assay (reference value: 512 ug/ml); type: functional; details: Klebsiella pneumoniae, 113250, 18 h
[5] = tested on: Pseudomonas aeruginosa; assay: Potentiation of novobiocin-induced antibacterial activity against wild type Pseudomonas aeruginosa PAO1 assessed as fold reduction in novobiocin MIC incubated for 18 hrs by CLSI protocol based assay relative to novobiocin MIC; type: functional
[6] = tested on: Pseudomonas aeruginosa; assay: Synergistic antibacterial activity against wild type Pseudomonas aeruginosa PAO1 assessed as potentiation of doxycycline-induced antibacterial effect incubated for 18 hrs by checkerboard assay; type: functional, organism-based
[7] = tested on: Klebsiella pneumoniae; assay: Potentiation of novobiocin-induced antibacterial activity against colistin-resistant Klebsiella pneumoniae 113254 clinical isolate assessed as fold reduction in novobiocin MIC incubated for 18 hrs by CLSI protocol based assay relative to novobiocin MIC; type: functional
[8] = tested on: Pseudomonas aeruginosa; assay: Synergistic antibacterial activity against wild type Pseudomonas aeruginosa PAO1 assessed as potentiation of linezolid-induced antibacterial effect incubated for 18 hrs by checkerboard assay relative to linezolid alone; type: functional
[9] = tested on: Pseudomonas aeruginosa; assay: Synergistic antibacterial activity against wild type Pseudomonas aeruginosa PAO1 assessed as potentiation of fosfomycin-induced antibacterial effect incubated for 18 hrs by checkerboard assay relative to fosfomycin alone; type: functional
[10] = tested on: Acinetobacter baumannii; assay: Antibacterial activity against novobiocin-resistant Acinetobacter baumannii ATCC 17978 mutant generated from seven serial passages by checkerboard assay; type: functional
[11] = tested on: Pseudomonas aeruginosa; assay: Bactericidal activity against Pseudomonas aeruginosa PAO1 assessed as log reduction in colony forming units per ml at 7.1 uM in LB media after 24 hrs in by time-kill assay; type: functional
[12] = tested on: Pseudomonas aeruginosa; assay: Antibacterial activity against wild type Pseudomonas aeruginosa PAO1 assessed as fractional inhibitory concentration index incubated for 18 hrs in presence of colistin by checkerboard assay; type: functional
[13] = tested on: Enterobacter cloacae; assay: Potentiation of novobiocin-induced antibacterial activity against colistin-resistant Enterobacter cloacae 118568 clinical solate assessed as novobiocin MIC at <= 7.1 uM incubated for 18 hrs by CLSI protocol based assay (reference value: 1024 ug/ml); type: functional; details: Enterobacter cloacae, 118568, 18 h
[14] = tested on: Pseudomonas aeruginosa; assay: Antibacterial activity against carbapenem and colistin-resistant Pseudomonas aeruginosa 114228 clinical incubated for 18 hrs by CLSI protocol based assay B84; type: functional; details: Pseudomonas aeruginosa, 114228, 18 h
[15] = tested on: Escherichia coli; assay: Potentiation of novobiocin-induced antibacterial activity against colistin-resistant Escherichia coli 94474 clinical isolate harboring mcr-1 gene assessed as fold reduction in novobiocin MIC incubated for 18 hrs by CLSI protocol based assay relative to novobiocin MIC; type: functional
[16] = tested on: Acinetobacter baumannii; assay: Bactericidal activity against Acinetobacter baumannii ATCC 17978 assessed as log reduction in colony forming units per ml at 7.1 uM in LB media after 9 hrs by time-kill assay; type: functional
[17] = Toxicity in Galleria mellonella larvae assessed as survivability at 200 mg/kg measured every 6 hrs for 72 hrs; type: organism-based; details: in vivo
[18] = tested on: Acinetobacter baumannii; assay: Antibacterial activity against novobiocin and test compound-resistant Acinetobacter baumannii ATCC 17978 mutant generated from seven serial passages in presence of novobiocin by checkerboard assay; type: functional
[19] = tested on: Escherichia coli; assay: Potentiation of novobiocin-induced antibacterial activity against wild type Escherichia coli ATCC 25922 assessed as fold reduction in novobiocin MIC incubated for 18 hrs by CLSI protocol based assay relative to novobiocin MIC; type: functional
[20] = tested on: Pseudomonas aeruginosa; assay: Synergistic antibacterial activity against wild type Pseudomonas aeruginosa PAO1 assessed as potentiation of minocycline-induced antibacterial effect incubated for 18 hrs by checkerboard assay relative to minocycline alone; type: functional
[21] = tested on: Klebsiella pneumoniae; assay: Potentiation of novobiocin-induced antibacterial activity against Klebsiella pneumoniae 116381 clinical isolate assessed as novobiocin MIC at <= 7.1 uM incubated for 18 hrs by CLSI protocol based assay (reference value: 1024 ug/ml); type: functional; details: Klebsiella pneumoniae, 116381, 18 h
[22] = tested on: Acinetobacter baumannii; assay: Potentiation of novobiocin-induced antibacterial activity against Acinetobacter baumannii LAC-4 clinical isolate assessed as novobiocin MIC at <= 7.1 uM incubated for 18 hrs by CLSI protocol based assay (reference value: 8 ug/ml); type: functional; details: LAC-4, 18 h
[23] = tested on: Pseudomonas aeruginosa; assay: Potentiation of novobiocin-induced antibacterial activity against colistin and carbapenem-resistant Pseudomonas aeruginosa 101243 clinical isolate assessed as novobiocin MIC at <= 7.1 uM incubated for 18 hrs by CLSI protocol based assay (reference value: 128 ug/ml); type: functional; details: Pseudomonas aeruginosa, 101243, 18 h
[24] = tested on: Acinetobacter baumannii; assay: Potentiation of novobiocin-induced antibacterial activity against Acinetobacter baumannii LAC-4 clinical isolate assessed as fold reduction in novobiocin MIC incubated for 18 hrs by CLSI protocol based assay relative to novobiocin MIC; type: functional
[25] = tested on: Pseudomonas aeruginosa; assay: Synergistic antibacterial activity against wild type Pseudomonas aeruginosa PAO1 assessed as potentiation of piperacillin-induced antibacterial effect incubated for 18 hrs by checkerboard assay; type: functional, organism-based
[26] = tested on: Klebsiella pneumoniae; assay: Antibacterial activity against Klebsiella pneumoniae 116381 clinical isolate incubated for 18 hrs by CLSI protocol based assay; type: functional; details: Klebsiella pneumoniae, 116381, 18 h
[27] = tested on: Pseudomonas aeruginosa; assay: Synergistic antibacterial activity against wild type Pseudomonas aeruginosa PAO1 assessed as potentiation of chloramphenicol-induced antibacterial effect incubated for 18 hrs by checkerboard assay; type: functional, organism-based
[28] = tested on: Pseudomonas aeruginosa; assay: Synergistic antibacterial activity against wild type Pseudomonas aeruginosa PAO1 assessed as potentiation of aztreonam-induced antibacterial effect incubated for 18 hrs by checkerboard assay relative to aztreonam alone; type: functional
[29] = tested on: Pseudomonas aeruginosa; assay: Antibacterial activity against Pseudomonas aeruginosa 259-96918 clinical isolate incubated for 18 hrs by CLSI protocol based assay; type: functional; details: 259-96918, 18 h
[30] = tested on: Pseudomonas aeruginosa; assay: Synergistic antibacterial activity against wild type Pseudomonas aeruginosa PAO1 assessed as potentiation of levofloxacin-induced antibacterial effect incubated for 18 hrs by checkerboard assay relative to levofloxacin alone; type: functional
[31] = tested on: Acinetobacter baumannii; assay: Bactericidal activity against Acinetobacter baumannii ATCC 17978 assessed as log reduction in colony forming units per ml at 7.1 uM in LB media after 9 hrs in presence of 50.4 uM novobiocin by time-kill assay; type: functional
[32] = tested on: Enterobacter cloacae; assay: Potentiation of novobiocin-induced antibacterial activity against colistin-resistant Enterobacter cloacae 121187 clinical solate assessed as novobiocin MIC at <= 7.1 uM incubated for 18 hrs by CLSI protocol based assay (reference value: 64 ug/ml); type: functional; details: Enterobacter cloacae, 121187, 18 h
[33] = tested on: Acinetobacter baumannii; assay: Potentiation of novobiocin-induced antibacterial activity against Acinetobacter baumannii 110193 clinical isolate assessed as novobiocin MIC at <= 7.1 uM incubated for 18 hrs by CLSI protocol based assay (reference value: 256 ug/ml); type: functional; details: Acinetobacter baumannii, 110193, 18 h

In the case of `NC[C@H]1O[C@H](O[C@H]2[C@H](OCCCCc3cn(CCCCO[C@@H]4[C@@H](O[C@H]5O[C@H](CO)[C@@H](O)[C@H](N)[C@H]5O)[C@H](N)C[C@H](N)[C@H]4O[C@H]4O[C@H](CN)[C@@H](O)C[C@H]4N)nn3)[C@@H](O[C@H]3O[C@H](CO)[C@@H](O)[C@H](N)[C@H]3O)[C@H](N)C[C@@H]2N)[C@H](N)C[C@@H]1O.O=C(O)C(F)(F)F.O=C(O)C(F)(F)F.O=C(O)C(F)(F)F.O=C(O)C(F)(F)F.O=C(O)C(F)(F)F.O=C(O)C(F)(F)F.O=C(O)C(F)(F)F.O=C(O)C(F)(F)F.O=C(O)C(F)(F)F.O=C(O)C(F)(F)F`, the “fold change (FC)” value [1] is reported as 4 - 128, the MIC [2] is reported as 8 µg/mL and the MIC [3] is reported as greater than 128 µg/mL. The MIC [4] was 16 µg/mL, the Ratio [5] was 128 and the Activity [6] was “Dose-dependent effect”. The Ratio [7] was 16, the “fold change (FC)” value [8] was 4 - 128 and the “fold change (FC)” value [9] was 4 - 128. The MIC [10] was 128 µg/mL, the Activity [11] was -3.68 CFU/ml and the “fractional inhibitory concentration index (FICI)” value [12] was greater than 4. For the same molecule, the MIC [13] was 32 µg/mL, the MIC [14] was greater than 128 µg/mL and the Ratio [15] was 16. For the same molecule, the Activity [16] was -3 CFU/ml, the Activity [17] was “Non-Toxic” and the MIC [18] was 16 µg/mL. For the same molecule, the Ratio [19] was 32, the “fold change (FC)” value [20] was 4 - 128 and the MIC [21] was 8 µg/mL. The MIC [22] was 0.5 µg/mL, the MIC [23] was 1 µg/mL and the Ratio [24] was 16. For the same molecule, the Activity [25] was “Dose-dependent effect”, the MIC [26] was greater than 128 µg/mL and the Activity [27] was “Dose-dependent effect”. The “fold change (FC)” value [28] was 4 - 128, the MIC [29] was greater than 128 µg/mL and the “fold change (FC)” value [30] was 4 - 128. The Activity [31] was -5 CFU/ml, the MIC [32] was 8 µg/mL and the MIC [33] was 1 µg/mL.
